# Measurements reported in patent publication US20140378531A1, “INHIBITION OF PATTERN RECOGNITION RECEPTORS IN PANCREATIC CANCER TREATMENT USING TLR INHIBITORS” (NEW YORK UNIVERSITY, priority 2012, published 2014).
# Experiments:
# Type in all cases: in vivo
# [1] = L-arginine induced pancreatic injury; settings: WT mice, L-arginine for one week
# MAP Kinase = MAP Kinase or NF-κB blockade in caerulein + ssRNA40 pancreatitis; settings: mice, caerulein for 3 weeks + ssRNA40 + pathway blockade
# Experimental: FIG. 15. TLR7 agonists exacerbate pancreatic inflammation via NF-κB and MAP Kinase dependent mechanisms. Mice were treated for 3 weeks with caerulein to induce pancreatitis.
# In vivo TLR7 ligation was accomplished by thrice weekly i.p administration of selective TLR7 agonists (ssRNA40, E. coli RNA, or Adenine analogue, all 100 μg/kg; Invivogen, San Diego, Calif.). TLR7 blockade was accomplished using an oligonucleotide inhibitor of TLR7 (Guiducci et al., 2010) (IRS661, 100 μg, 3× per week; Dynavax, Berkeley, Calif.). Bone marrow chimeric animals were created by irradiating mice ([…]) followed by i.v. bone marrow transfer (1×10^7 cells) from non-irradiated donors as described (Bedrosian et al., 2011) Chimeric mice were employed in experiments 7 weeks later. In selected experiments, to accelerate carcinogenesis in p48Cre;Kras^G12D mice, two doses of caerulein (50 μg/kg) were administered over 48 hours as described (Carriere et al., 2009). MAP Kinase signaling blockade was accomplished using the MKK inhibitor PD98059 (2.5 mg/kg/day), the p38 inhibitor SB203580 (30 mg/kg/day), or the JNK inhibitor SP600125 (50 mg/kg/day; all Invivogen). Selective NF-κB signaling blockade was accomplished using either the NEMO binding domain inhibitor (1 mg/kg/day, EMD4Biosciences, Gibbstown, N.J.) or the IkB inhibitor Bay11-7082 (1.25 mg/kg/day; Invivogen). […]
# TLR7 = molecular target: T1, TLR7 (Mus musculus, UniProt P58681); assay: TLR7 blockade in caerulein-accelerated pancreatic carcinogenesis in p48Cre;Kras^G12D mice; settings: caerulein 50 μg/kg, two doses over 48 hours
# T1 construct: from tissue; host or cells: whole animal: p48Cre;Kras^G12D mice and WT C57BL/6 mice; TLR7 on pancreatic leukocytes and epithelial cells
# T1 sequence (P58681 27-1050): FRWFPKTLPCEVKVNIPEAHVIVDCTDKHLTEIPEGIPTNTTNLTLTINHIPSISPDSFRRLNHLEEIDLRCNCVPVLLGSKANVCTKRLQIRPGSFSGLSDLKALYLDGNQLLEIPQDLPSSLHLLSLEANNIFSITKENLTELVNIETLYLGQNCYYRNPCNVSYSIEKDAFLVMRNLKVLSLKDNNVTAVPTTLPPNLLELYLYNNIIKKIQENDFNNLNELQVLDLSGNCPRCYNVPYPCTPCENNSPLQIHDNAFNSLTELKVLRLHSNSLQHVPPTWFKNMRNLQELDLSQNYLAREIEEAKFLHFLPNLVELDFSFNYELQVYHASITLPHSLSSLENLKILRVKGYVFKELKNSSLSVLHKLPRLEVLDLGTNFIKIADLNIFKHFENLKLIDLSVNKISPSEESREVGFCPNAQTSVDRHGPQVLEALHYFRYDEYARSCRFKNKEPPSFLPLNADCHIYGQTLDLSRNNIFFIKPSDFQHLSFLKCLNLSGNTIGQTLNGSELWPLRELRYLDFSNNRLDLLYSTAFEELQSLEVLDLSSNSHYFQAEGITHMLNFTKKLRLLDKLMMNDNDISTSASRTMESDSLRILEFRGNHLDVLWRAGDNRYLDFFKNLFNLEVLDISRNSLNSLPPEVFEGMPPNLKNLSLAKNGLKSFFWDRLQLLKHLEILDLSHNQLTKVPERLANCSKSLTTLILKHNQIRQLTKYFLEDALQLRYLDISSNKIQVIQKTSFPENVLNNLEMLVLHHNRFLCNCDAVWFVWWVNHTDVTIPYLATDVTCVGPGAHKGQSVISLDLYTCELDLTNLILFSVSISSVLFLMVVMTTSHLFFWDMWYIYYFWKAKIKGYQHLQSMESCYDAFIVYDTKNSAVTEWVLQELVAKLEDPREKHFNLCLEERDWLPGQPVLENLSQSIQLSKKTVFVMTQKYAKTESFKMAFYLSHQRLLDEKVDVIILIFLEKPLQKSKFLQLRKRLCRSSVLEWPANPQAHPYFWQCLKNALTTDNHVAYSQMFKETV
molecule,measurement,setting,value
N=C(N)NCCC[C@H](N)C(=O)O [L-arginine],pancreatic injury,[1],induced mild pancreatic edema and inflammation
COc1cccc(-c2cc(=O)c3ccccc3o2)c1N [PD98059],effects of TLR7 ligation on fibro-inflammatory pancreatic disease,MAP Kinase,protected from effects of TLR7 ligation
caerulein,pancreatic histology after caerulein alone,TLR7,developed invasive pancreatic adenocarcinoma within an extensive bed of fibro-inflammatory stroma
